Test results: US4859678A, “N-oxide ergolines as antihypertensive agents” (Farmitalia Carlo Erba, priority 1987, dated 1989)

System: mean blood pressure
Test: Antihypertensive activity: intra-arterial mean blood pressure after single oral dose in rats
Type: in vivo
Conditions: rat, p.o.; for ED25 (dose lowering mean blood pressure of 25 mmHg) / ED (25 mmHg): single dose, calculated from dose-response regression line; for Decrease in mean blood pressure at 15' / Decrease in mean blood pressure at 30' / Decrease in mean blood pressure at 1 h / Decrease in mean blood pressure at 2 h / Decrease in mean blood pressure at 3 h / Decrease in mean blood pressure at 4 h / Decrease in mean blood pressure at 5 h / Decrease in mean blood pressure at 6 h / Decrease in mean blood pressure at 8 h / Decrease in mean blood pressure at 10 h / Decrease in mean blood pressure at 12 h: ex 40 0.125, Example 1 0.5, ex 41 0.25, Example 2 1 mg/kg; for Decrease in mean blood pressure at 15': 15 min, not significant (**): Example 1; for Decrease in mean blood pressure at 30': 30 min; for Decrease in mean blood pressure at 6 h: not significant (**): ex 41; for Decrease in mean blood pressure at 8 h / Decrease in mean blood pressure at 10 h / Decrease in mean blood pressure at 12 h: not significant (**): ex 40, ex 41; for ED (25 mmHg): po, read-out: ED25 (dose lowering mean blood pressure of 25 mmHg)
Experimental: Intrarterial measurements of mean blood pressure (MBP) were performed through catheters (PE 50, Clay Adams) implanted in the rat right carotid artery under halothane anesthesia. Twenty four hours after surgery, the animals were placed in Ballman cages and the arterial cannula was connected via a pressure transducer to a Beckman blood pressure recorder for continuous monitoring of mean blood pressure. MBP was recorded before the oral administration (basal values) and at 15-30-60-120-240 minutes until 12 hours after treatment. Groups of 7 to 8 rats were orally treated with a single dose of the test compound of vehicle, methocel 0.5% w/v (0.2 ml/100 g b.w.). The ED25 was calculated for each compound from the dose-response regression line.
As reference standard drugs, two prior art ergoline derivatives described by EP 0126968 were also tested.
In fact, the mean blood pressure decrease induced by the two derivatives of the present invention was still significant 10 to 12 hours after dosing, whereas with the prior art compounds the hypotensive effect lasted only 5 to 6 hours. The oral orientative acute toxicity (LD50) in mice (evaluated in the Irwin test) of the compounds of the formula I was higher than 800 mg/kg.

Molecule | ED25 (dose lowering mean blood pressure of 25 mmHg) [mg/Kg^-1] | Decrease in mean blood pressure at 15' | Decrease in mean blood pressure at 30' | Decrease in mean blood pressure at 1 h | Decrease in mean blood pressure at 2 h | Decrease in mean blood pressure at 3 h | Decrease in mean blood pressure at 4 h | Decrease in mean blood pressure at 5 h | Decrease in mean blood pressure at 6 h | Decrease in mean blood pressure at 8 h | Decrease in mean blood pressure at 10 h | Decrease in mean blood pressure at 12 h | ED (25 mmHg) [mg/kg]
CN1C[C@H](Cn2ccc(=O)[nH]c2=O)C=C2c3cccc4[nH]cc(c34)C[C@H]21 [Standard, ex 40 of EP 0126968, 1-[(6-methy -Δ-9,10-ergolen-8β-yl)methyl]-2,4-(1H,3H)dihydro-pyrimidine diole] | 0.046 | -22.9 ΔmmHg | -34.5 ΔmmHg | -33.9 ΔmmHg | -37.3 ΔmmHg | -34.5 ΔmmHg | -42.7 ΔmmHg | -28.9 ΔmmHg | -25.5 ΔmmHg | -10.5 ΔmmHg | -7.3 ΔmmHg | -6.7 ΔmmHg | 
1-[6-methyl -Δ- 9,10-ergolen -8β- yl)methyl]-2,4-(1H,3H)dihydro-pyrimidinedione-N6-oxide [Example 1] | 0.050 | -12.2 ΔmmHg | -21.0 ΔmmHg | -32.2 ΔmmHg | -35.5 ΔmmHg | -45.1 ΔmmHg | -55.1 ΔmmHg | -58.5 ΔmmHg | -54.3 ΔmmHg | -44.3 ΔmmHg | -35.5 ΔmmHg | -27.2 ΔmmHg | 
C[N+]1([O-])C[C@H](CN2CC(=O)NC2=O)C=C2c3cccc4[nH]cc(c34)C[C@H]21 (stereo partly drawn) [Example 2, 1-[(6-methyl -Δ-9,10-ergolen-8β-yl)methyl]-2,4-imidazolidinedione-N6-oxide] |  | -23.1 ΔmmHg | -27.5 ΔmmHg | -35.9 ΔmmHg | -34.1 ΔmmHg | -35.0 ΔmmHg | -38.4 ΔmmHg | -36.5 ΔmmHg | -34.1 ΔmmHg | -27.8 ΔmmHg | -22.5 ΔmmHg | -16.2 ΔmmHg | 0.198
CN1C[C@H](CN2CC(=O)NC2=O)C=C2c3cccc4[nH]cc(c34)C[C@H]21 [Standard, ex 41 of EP 0126968, 1-[(6-methyl-Δ-9,10-ergolen-8β-yl)methyl]-2,4-imidazolidinedione] |  | -26.8 ΔmmHg | -31.4 ΔmmHg | -29.6 ΔmmHg | -37.5 ΔmmHg | -35.7 ΔmmHg | -31.4 ΔmmHg | -15.7 ΔmmHg | -14.6 ΔmmHg | -2.5 ΔmmHg | -6.5 ΔmmHg | -9.4 ΔmmHg | 0.19
